Assay [1] deals with Human Dermal Microvascular Endothelial Cells (HDMVEC). Description: Growth inhibition of HDMVEC cells, MTT, 7 days. Format: cell-based. The following applies: Endothelial cell, HDMVEC growth, procedures of Example 3, read-out: Inhibitory Effect (IC50 Value). The protocol:
To measure the inhibitory activity of (2) on growth of HDMVEC cells (Clonetics, San Diego, Calif.), 2,000 cells were seeded in each well of a 96-well plate in […] of EGM medium (Clonetics) supplemented with 5% fetal bovine serum (Sigma). The plate was incubated at 37° C. in a tissue culture incubator for 24 h, and then various concentrations of (2) dissolved in EGM were added to each well in 5-10 μl aliquots. Four wells were used for each concentration. Medium in each well was renewed with fresh test solution added every other day. After 7 days of culture, the viable cells were measured using reagents from an MTT kit (Promega Corporation, Madison, Wis.), using instructions provided by the supplier. The number of viable cells in treated wells relative to those in control wells gave the percentage of inhibition.
The procedures of Example 3 were carried out to evaluate the inhibitory effect of various compounds of the invention on the growth of HDMVEC cells (Clonetics, San Diego, Calif.).

The test system of assay [2] is HIF-1α protein in PC-3 prostate cancer cells. Description: HIF-1α protein expression by immunoblotting, PC-3 cells. Format: cell-based, human. To be noted: PC-3, same hypoxic/anoxic conditions as for (2). The protocol: (§1) Hypoxia experiments were performed in either of two ways. To produce a very low ambient oxygen concentration (effectively anoxia), we used a protocol in which cells were incubated in a 5% CO2-air atmosphere at 37° C. overnight and then placed in aluminum gas-exchange chambers maintained at 37° C. (Laderoute K R et al. Mol Cell Biol 22: 2515-2523, (2002); Laderoute K R et al. Mol Cell Biol 24: 4128-4137, (2004)). The chambers containing the cells were then placed in a 37° C. circulating water bath and the original atmosphere was repeatedly exchanged with 5% CO2-95% N2 using a manifold equipped with a vacuum pump and a gas cylinder. Atmospheric oxygen partial pressure (pO2) values of less than or equal to 0.01% (relative to air at pO2 of about 21%) can be achieved inside the chambers using this system. Following various hypoxic exposures, the chambers were opened an anaerobic glove box (Bactron X, Sheldon Manufacturing Inc., Cornelius, Oreg.; attached to a cylinder containing 5% CO2-95% N2) to prepare cell lysates without significant reoxygenation. All manipulations of hypoxic cells were performed in the anaerobic glove box. Atmospheric oxygen levels in both the chambers and the glove box have been measured and calibrated using a polarographic oxygen electrode (Oxygen Sensors, Inc., Norristown, Pa.). Hypoxia experiments involving a pO2 of 1% were performed by equilibrating the glove box with an atmosphere of 1% O2 5% CO2 95% N2 held at 37° C. with a circulating fan. Cells were incubated inside a humidified space in the glove box and the medium on the cells was gently and continually agitated by using a rotary shaker. For these experiments, we used RAW 264.7 immortalized mouse macrophages as normal control cells, PC-3 prostate cancer cells, and MDA-MB-231 breast cancer cells, all available from ATCC.
(§2) We used immunoblotting to evaluate the experiments. Nuclear lysates were used to detect HIF-1α protein by immunoblotting (Murphy B J et al. Biochem Biophys Res Commun (In Press): 2005). Briefly, cells were placed on ice in air or on Super Ice® cold packs in the anaerobic glove box and the medium was removed. […] After spinning at 9,000×g for 5 min at 4° C., the protein concentrations of the supernatants were determined by using a bicinchoninic acid assay (Pierce Biotechnology). […] Primary antibody binding was detected and visualized by using the ECL Plus Western Blotting Detection System (Amersham Pharmacia Biotech) according to the supplier's instructions. HIF-1α protein was detected by using an anti-HIF-1α monoclonal antibody (Novus Biologicals, Cat. No. NB100-123; diluted 1:500) and a horseradish peroxidase-conjugated anti-mouse IgG secondary antibody (Santa Cruz Biotechnology, Cat. No. sc-2062; diluted 1:20,000). […]
On the technique in general: A western blot detects proteins with antibodies after separation by electrophoresis.

Assay [3] relates to human endometrial Ishikawa cells. Put plainly: Estrogenic activity, alkaline phosphatase, Ishikawa cell-based assay. To be noted: 72 hours. The protocol:
Ishikawa cell based assays were run in parallel on human endometrial Ishikawa cells treated with compound (2) or with 2-methoxyestradiol. 2-Methoxyestradiol is a compound reported in the literature as an anti-angiogenic agent. Cells were cultured in 96-well plates for 48 hours in estrogen- and phenol red-free medium (DMEM/Hamm's F12 medium) containing 5% fetal bovine serum stripped of endogenous estrogens with dextran coated charcoal (Sigma). Compound (2) or other test compounds were then added to the cells and culturing was continued for an additional 72 hours. To the control cells (no (2)), 10^−9 M of […] was added. At the end of 72 hours, alkaline phosphatase activity was measured by adding 5 mM p-nitrophenyl phosphate, 0.24 mM MgCl2, and 1 M diethanolamine (pH 9.8) to the cells while the 96-well plates were kept on ice. The plates were then warmed to room temperature, and the yellow color from the production of p-nitrophenol was measured after 2-3 hours using an ELISA plate reader at a wavelength of 405 nm. The estrogenic activity was defined as the alkaline phosphatase activity stimulated by the test compounds alone as a percentage of that stimulated by estradiol at 10^−9 M. Stimulation by estradiol at 10^−9 M was taken as 100%.

Assay [4] relates to HIF-1α protein in MDA-MB-231 human breast carcinoma cells. Description: HIF-1α protein expression by immunoblotting, MDA-MB-231 cells. Format: cell-based. The following applies: MDA-MB-231, same hypoxic/anoxic conditions as for (2). The protocol:
as §1, with “Hypoxia experiments involving a pO2 of 1% were performed by equilibrating the glove box with an atmosphere of 1% O2 5% CO2 95% N2 held at 37° C. with a circulating fan. Cells were incubated inside a humidified space in the glove box and the medium on the cells was gently and continually agitated by using a rotary shaker. For these experiments, we used RAW 264.7 immortalized mouse macrophages as normal control cells, PC-3 prostate cancer cells, and MDA-MB-231 breast cancer cells, all available from ATCC.” left out
as §2, with “experiments.” for “experiments. Nuclear lysates were used to detect HIF-1α protein by immunoblotting (Murphy B J et al. Biochem Biophys Res Commun (In Press): 2005). Briefly, cells were placed on ice in air or on Super Ice® cold packs in the anaerobic glove box and the medium was removed.”

The IC50 is the concentration that gives 50% inhibition. For the compound `C[C@@H]1Cc2cc(O)ccc2C2CCC3(C)C(CCOCCN(C)C)CCC3C21` (some centres unmarked), the IC50 in assay [1] was determined as 4000 nM.

As for `CN(C)CCOC/C=C1\CCC2C3CCc4cc(O)ccc4C3CCC12C` (centres unmarked), the IC50 in assay [1] was 1800 nM.

Turning to `CCN(CC)Cc1ccc(OC/C=C2\CCC3C4C(CCC23C)c2ccc(O)cc2C[C@H]4C)c(OC)c1` (some centres unmarked), the half-inhibitory concentration (IC50) in assay [1] was 1500 nM.

For `CCN(CC)Cc1ccc(OCCC2CCC3C4C(CCC23C)c2ccc(O)cc2C[C@H]4C)c(OC)c1` (some centres unmarked), the IC50 in assay [1] amounted to 2000 nM.

`CCN(CC)Cc1ccc(OCCC2CCC3C4CCc5cc(O)ccc5C4CCC23C)c(OC)c1` (centres unmarked): the IC50 in assay [1] amounted to 2000 nM.

For the compound `COc1cc(CO)ccc1OCCC1CCC2C3C(CCC12C)c1ccc(O)cc1C[C@H]3C` (some centres unmarked), in assay [1], the IC50 was determined as 5000 nM.

As for `CCN(CC)Cc1cc(OC)c(OCCC2CCC3C4C(CCC23C)c2ccc(O)cc2C[C@H]4C)c(OC)c1` (some centres unmarked), the IC50 in assay [1] is 3600 nM.

Consider `COc1cc(CN2CCCC2)ccc1OCCC1CCC2C3C(CCC12C)c1ccc(O)cc1C[C@H]3C` (some centres unmarked), for which, in assay [1], the IC50 worked out at 1200 nM.

For the compound `COc1cc(CN2CCCCC2)ccc1OCCC1CCC2C3C(CCC12C)c1ccc(O)cc1C[C@H]3C` (some centres unmarked), the IC50 in assay [1] amounted to 600 nM.

With `CCN(CC)Cc1ccccc1OC/C=C1\CCC2C3C(CCC12C)c1ccc(O)cc1C[C@H]3C` (some centres unmarked), the IC50 in assay [1] was found to be 4700 nM.

In the case of `COC(=O)/C=C/c1ccc(OC/C=C2\CCC3C4C(CCC23C)c2ccc(O)cc2C[C@H]4C)cc1` (some centres unmarked), in assay [1], the concentration for half-maximal inhibition (IC50) is 5300 nM.

With `C[C@@H]1Cc2cc(O)ccc2C2CCC3(C)C(CCOc4ccc(C=O)cc4Cl)CCC3C21` (some centres unmarked), the IC50 in assay [1] came to 10000 nM.

Take `COc1cc2c(cc1O)CC[C@@H]1[C@@H]2CC[C@]2(C)[C@@H](O)CC[C@@H]12` [2-methoxyestradiol, 2-Methoxyestradiol, reference compound]: the “HIF-1α protein expression, standard HIF-1 inhibitors” value in assay [2] and in assay [4] was “did not find any effect” in each case. Besides, the “estrogenic activity (alkaline phosphatase stimulation relative to estradiol at 10^−9 M)” value in assay [3] is reported as “large amount of estrogenic activity”.

Regarding `OCc1ccc(-c2nn(Cc3ccccc3)c3ccccc23)o1` [YC-1, reference compound], the “HIF-1α protein expression, standard HIF-1 inhibitors” value is given as “did not find that YC-1, another standard HIF-1 inhibitor, could reproducibly inhibit” in assay [2] and “did not find that YC-1, another standard HIF-1 inhibitor, could reproducibly inhibit” in assay [4].

The record behind these values is patent publication US20120252773A1, “Method and composition for inhibiting cell proliferation and angiogenesis” (priority 2005, published 2012).
